We go through 24 compounds from patent publication US8846912B2, “Tartrate salts of quinazoline based EGFR inhibitors containing a zinc binding moiety” (Curis, Inc., priority 2007, dated 2014).

What is called IC50 is the concentration needed to halve the response being measured. Higher therefore signals a need for much substance.

Data set [1] deals with T1, human EGFR(His672-Ala1210) (Homo sapiens, UniProt P00533).
T1 construct: a construct expressing human EGFR(His672-Ala1210); GST (N); purchased Cell Signaling Technologies; host or cells: baculovirus expression system
T1 sequence (P00533 672-1210): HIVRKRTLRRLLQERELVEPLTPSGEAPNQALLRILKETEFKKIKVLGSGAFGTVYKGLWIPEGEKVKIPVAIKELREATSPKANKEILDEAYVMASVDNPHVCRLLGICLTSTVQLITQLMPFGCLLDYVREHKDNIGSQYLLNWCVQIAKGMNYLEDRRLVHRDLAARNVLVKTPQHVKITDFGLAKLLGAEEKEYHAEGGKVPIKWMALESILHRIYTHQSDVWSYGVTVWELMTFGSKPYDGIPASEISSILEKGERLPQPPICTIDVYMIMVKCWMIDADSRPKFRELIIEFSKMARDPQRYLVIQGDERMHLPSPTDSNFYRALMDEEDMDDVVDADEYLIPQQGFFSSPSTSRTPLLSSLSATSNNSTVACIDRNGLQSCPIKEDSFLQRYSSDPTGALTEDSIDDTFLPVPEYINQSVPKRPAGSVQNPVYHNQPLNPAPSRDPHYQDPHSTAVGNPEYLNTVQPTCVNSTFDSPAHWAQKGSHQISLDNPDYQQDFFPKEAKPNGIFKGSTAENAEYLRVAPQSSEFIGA
Kind of data set: EGFR kinase assay (HTScan EGF Receptor Kinase Assay Kit). It is filed as biochemical. The note with it: FIG. 1. As for the experimental part: The ability of compounds to inhibit receptor kinase (EGFR) activity was assayed using HTScan™ EGF Receptor Kinase Assay Kits (Cell Signaling Technologies, Danvers, Mass.). […] The protein was purified by one-step affinity chromatography using glutathione-agarose.
Immediately transfer enzyme from −80° C. to ice. Allowed enzyme to thaw on ice. […] Returned immediately to ice. […] Incubated reaction plate at room temperature for 30 minutes. […] Added 100 μl/well primary antibody. Incubated at room temperature for 60 minutes. […] Added 100 μl/well diluted antibody. Incubated at room temperature for 30 minutes. […] Incubated at room temperature for 5 minutes.

The target of data set [2] is HDAC. The data set can be described thus: HDAC fluorimetric enzyme assay (HeLa nuclear extract). It counts as biochemical. As for the experimental part:
HDAC inhibitors were screened using an HDAC fluorimetric assay kit (AK-500, Biomol, Plymouth Meeting, Pa.).
Each assay was setup as follows: Defrosted all kit components and kept on ice until use. […] Prepared dilutions of Trichostatin A (TSA, positive control) and tested compounds in assay buffer (5× of final concentration). Diluted Fluor de Lys™ Substrate in assay buffer to 100 uM (50 fold=2× final). Diluted Fluor de Lys™ developer concentrate 20-fold (e.g. 50 μl plus 950 μl Assay Buffer) in cold assay buffer. Second, diluted the 0.2 mM Trichostatin A 100-fold in the 1× Developer (e.g. 10 μl in 1 ml; final Trichostatin A concentration in the 1× Developer=2 μM; final concentration after addition to HDAC/Substrate reaction=1 μM). Added Assay buffer, diluted trichostatin A or test inhibitor to appropriate wells of the microtiter plate. Added diluted HeLa extract or other HDAC sample to all wells except for negative controls.

Data set [3] is described as follows: Dilution study with D5W (precipitation, chemical stability). It is filed as physicochemical. Particulars: for Dilution with D5W: salt in 30% CAPTISOL; for Chemical stability in diluted solution: salt in 30% CAPTISOL diluted with D5W.
Data set [4] in a line: pH of salt solution in 30% CAPTISOL
Protocol: Sodium, hydrochloride, citrate and tartrate salts of a test compound of Formula I were prepared in 30% CAPTISOL® solutions and were studied for the following:
It counts as physicochemical. Particulars: salt in 30% CAPTISOL

Counter-ions that a name gives are not always drawn. Where only a bound is given, the exact number is not on record here.

In the case of `COc1cc2ncnc(Nc3ccc(F)c(Cl)c3)c2cc1OCCCCCCC(=O)NO` [Compound 6, 7-(4-(3-Chloro-4-fluorophenylamino)-7-methoxyquinazolin-6-yloxy)-N-hydroxyheptanamide], the “activity in EGFR enzyme assay compared with erlotinib” value in data set [1] was “more active than erlotinib and SAHA”. In addition, in data set [2], the IC50 is under 0.1 µM. Besides, the “activity in HDAC enzyme assay compared with SAHA” value in data set [2] (FIG. 1) was “more active than erlotinib and SAHA”.
In turn, `COCCOc1cc2ncnc(Nc3ccc(F)c(Cl)c3)c2cc1NC(=O)CCCCC(=O)NO` [Compound 69, N^1-(4-(3-chloro-4-fluorophenylamino)-7-(2-methoxyethoxy)quinazolin-6-yl)-N^6-hydroxyadipamide] had an IC50 in data set [2] of 0.1 to 1 µM.
In data set [2], `C#Cc1cc(Nc2ncnc3cc(OC)c(OCCCCCCC(=O)NO)cc23)ccc1F` [Compound 75, 7-(4-(3-ethynyl-4-fluorophenylamino)-7-methoxyquinazolin-6-yloxy)-N-hydroxyheptanamide] displayed a concentration for half-maximal inhibition (IC50) of under 0.1 µM.
For `C#Cc1cc(Nc2ncnc3cc(OCCOC)c(OCCCCCCC(=O)NO)cc23)ccc1F` [Compound 76], in data set [2], the IC50 is under 0.1 µM.
On the same count and under the same terms, the result for `COc1cc2ncnc(N[C@H](C)c3ccccc3)c2cc1OCCCCCC(=O)NO` [Compound 77, (R)—N-hydroxy-6-(7-methoxy-4-(1-phenylethylamino)quinazolin-6-yloxy)-hexanamide] reads under 0.1 µM.
The same measure, in the same setting: the result for `C[C@@H](Nc1ncnc2ccc(OCCCCCC(=O)NO)cc12)c1ccccc1` [Compound 78, (R)—N-hydroxy-6-(4-(1-phenylethylamino)-quinazolin-6-yloxy)hexanamide] reads under 0.1 µM.
`COc1cc2ncnc(N[C@H](C)c3ccccc3)c2cc1OCCCCCCC(=O)NO` [Compound 79, (R)—N-hydroxy-7-(7-methoxy-4-(1-phenylethylamino)quinazolin-6-yloxy)heptanamide] returned a concentration for half-maximal inhibition (IC50) in data set [2] of under 0.1 µM.
In the case of `COc1cc2ncnc(N[C@@H](C)c3ccccc3)c2cc1OCCCCCCC(=O)NO` [Compound 80, (S)—N-hydroxy-7-(7-methoxy-4-(1-phenylethylamino)quinazolin-6-yloxy) heptanamide], the IC50 in data set [2] is under 0.1 µM.
Consider `COc1cc2ncnc(N[C@H](C)c3ccc(F)cc3)c2cc1OCCCCCCC(=O)NO` [Compound 81, (R)-7-(4-(1-(4-fluorophenyl)ethylamino)-7-methoxyquinazolin-6-yloxy)-N-hydroxyheptanamide], for which the IC50 in data set [2] was 0.1 to 1 µM.
In the case of `COc1cc2ncnc(N[C@H](C)c3ccc(Cl)cc3)c2cc1OCCCCCCC(=O)NO` [Compound 82, (R)-7-(4-(1-(4-Chlorophenyl)ethylamino)-7-methoxyquinazolin-6-yloxy)-N-hydroxyheptanamide], in data set [2], the IC50 was 0.1 to 1 µM.
Compound `COc1ccc([C@@H](C)Nc2ncnc3cc(OC)c(OCCCCCCC(=O)NO)cc23)cc1` [Compound 83, (R)—N-Hydroxy-7-(7-methoxy-4-(1-(4-methoxyphenyl)ethylamino)-quinazolin-6-yloxy)-heptanamide] returned an IC50 in data set [2] of under 0.1 µM.
Still for that read-out and setting: the value for `COc1cc2ncnc(NCCc3ccccc3)c2cc1OCCCCCCC(=O)NO` [Compound 84] was under 0.1 µM; that for `COc1cc2ncnc(NCc3ccccc3)c2cc1OCCCCCCC(=O)NO` [Compound 85, 7-(4-(Benzylamino)-7-methoxyquinazolin-6-yloxy)-N-hydroxyheptanamide] was under 0.1 µM.
In data set [2], `COc1cc2ncnc(NCc3ccc(F)cc3)c2cc1OCCCCCCC(=O)NO` [Compound 86, 7-(4-(4-fluorobenzylamino)-7-methoxyquinazolin-6-yloxy)-N-hydroxyheptanamide] showed an IC50 of under 0.1 µM.
Same read-out and setting: the result for `COc1cc2ncnc(NCc3ccc(F)c(F)c3)c2cc1OCCCCCCC(=O)NO` [Compound 87, 7-(4-(3,4-difluorobenzylamino)-7-methoxyquinazolin-6-yloxy)-N-hydroxyheptanamide] reads under 0.1 µM; that for `COc1cc2ncnc(NCc3ccc(F)c(Cl)c3)c2cc1OCCCCCCC(=O)NO` [Compound 88, 7-(4-(3-chloro-4-fluorobenzylamino)-7-methoxyquinazolin-6-yloxy)-N-hydroxyheptanamide], under 0.1 µM; that for `COc1cc2ncnc(NCc3cccc(Br)c3)c2cc1OCCCCCCC(=O)NO` [Compound 89, 7-(4-(3-bromobenzylamino)-7-methoxyquinazolin-6-yloxy)-N-hydroxyheptanamide], under 0.1 µM.
Same read-out and setting: the value for `C#Cc1cccc(CNc2ncnc3cc(OC)c(OCCCCCCC(=O)NO)cc23)c1` [Compound 90] was under 0.1 µM; that for `COc1cc2ncnc(Nc3ccc(F)c(Cl)c3)c2cc1OCCOc1ccc(CC(=O)NO)cc1` [Compound 91] was 1 to 10 µM.
Same read-out and setting: the result for `COc1cc2ncnc(Nc3ccc(F)c(Cl)c3)c2cc1NC(=O)Nc1ccc(C(=O)NO)cc1` [Compound 93] reads 1 to 10 µM; that for `COc1cc2ncnc(Nc3ccc(F)c(Cl)c3)c2cc1OCCCCCCC(=O)N(C)O` [Compound 94], over 10 µM.
In the case of `C#Cc1cccc(Nc2ncnc3cc(OC)c(OCCCCCCC(=O)NO)cc23)c1` [HCl], in data set [3], the “Dilution with D5W” value is listed as over 10x and the “Chemical stability in diluted solution” value is recorded as over 12 h. Moreover, the pH in data set [4] is on record as 2-3.
Turning to `C#Cc1cccc(Nc2ncnc3cc(OC)c(OCCCCCCC(=O)NO)cc23)c1` [Sodium], in data set [3], the “Dilution with D5W” value is over 10x and the “Chemical stability in diluted solution” value was over 12 h. The pH in data set [4] is on record as 10-11.
Turning to Citric Acid, in data set [3], the “Dilution with D5W” value is over 10x and the “Chemical stability in diluted solution” value is over 12 h.
